In brackets after ≈: the same amount, converted by molar mass.
Tests used:
Candida albicans = assay: Minimum inhibitory concentration (MIC) according to DIN 58940; type: cell-based; details: for MIC: Candida albicans, read-out: MIC values (ppm) Candida aibicans; for MIC values (ppm) Candida aibicans: DIN 58940
Protocol: (§1) The invention will be further described in the following on the basis of examples. The examples serve to illustrate the invention, without thereby restricting the scope of protection of the claims. For examples, 1 to 11 preservative challenge tests according to European Pharmacopoeia 7.0 (5.1.3. Efficacy of antimicrobial preservation) were used. For example 12, activities were determined by measuring minimum inhibitory concentrations (MIC values) according to DIN 58940. All numerical information relates to weight, unless stated otherwise.
(§2) The activity of Benzoic acid-3-hydroxypropylester (BAHP), Furoic acid-3-hydroxypropylester (FAHP) and Anisic acid-3-hydroxypropylester (AAHP), Salicylic acid hydroxyethyl ester (SAHE) and Salicylic acid hydroxypropyl ester (SAHP) was determined against the microorganisms Staphylococcus aureus, Candida albicans, Aspergillus brasiliensis, Pseudomonas aeruginosa and Escherichia coli. The activity of N-Methylsalicylamid (MSA), Furoic acid methylester (FAME) and Salicylamide (SA) was determined against the microorganism Aspergillus brasiliensis.

Escherichia coli = assay: as above; type: cell-based; details: for MIC: Escherichia coli, read-out: MIC values (ppm) Escherichia coli
Protocol: as §1, §2

Staphylococcus aureus = assay: as above; type: cell-based; details: for MIC: Staphylococcus aureus, read-out: MIC values (ppm) Staphylococcus aureus
Protocol: as §1, §2

Pseudomonas aeruginosa = assay: as above; type: cell-based; details: for MIC: Pseudomonas aeruginosa, read-out: MIC values (ppm) Pseudomonas aeruginosa
Protocol: as §1, §2

Aspergillus brasiliensis = assay: as above; type: cell-based; details: for MIC: Aspergillus brasiliensis, read-out: MIC values (ppm) Aspergillus brasiliensis
Protocol: as §1, §2

P. aeruginosa = assay: Preservative challenge test (European Pharmacopoeia 7.0, 5.1.3) in anionic emulsion with Dracorin CE; type: cell-based, Pseudomonas aeruginosa; details: pH 5.5
Protocol: as §1
(§3) Activity of Benzoic acid-3-hydroxypropylester (BAHP) against the microorganisms E. coli, P. aeruginosa, S. aureus, C. albicans and spores of A. brasiliensis was evaluated in an anionic emulsion with Dracorin CE as emulsifier. The pH value of the emulsion was 5.5.
(§4) Activity of Furoic acid-3-hydroxypropylester (FAHP) against the microorganisms E. coli, P. aeruginosa, S. aureus, C. albicans and spores of A. brasiliensis was evaluated in an anionic emulsion with Dracorin CE as emulsifier. The pH value of the emulsion was 5.5.
(§5) Activity of Anisic acid-3-hydroxypropylester (AAHP) against the microorganisms E. coli, P. aeruginosa, S. aureus, C. albicans and spores of A. brasiliensis was evaluated in an anionic emulsion with Dracorin CE as emulsifier. The pH value of the emulsion was 5.5.
as §3, with “Synergistic effects between” for “Activity of”, “(BAHP) and 1,2-Octanediol were determined. Activity of BAHP, 1,2-Octanediol and the combination of BAHP and 1,2-Octanediol” for “(BAHP)”

C. albicans = assay: as above; type: cell-based, Candida albicans; details: pH 5.5
Protocol: as §1, §3, §4, §5
as §3, with “Synergistic effects between” for “Activity of”, “(BAHP) and 1,2-Octanediol were determined. Activity of BAHP, 1,2-Octanediol and the combination of BAHP and 1,2-Octanediol” for “(BAHP)”

E. coli = assay: as above; type: cell-based, Escherichia coli; details: pH 5.5
Protocol: as §1, §3, §4, §5
as §3, with “Synergistic effects between” for “Activity of”, “(BAHP) and 1,2-Octanediol were determined. Activity of BAHP, 1,2-Octanediol and the combination of BAHP and 1,2-Octanediol” for “(BAHP)”

S. aureus = assay: as above; type: cell-based, Staphylococcus aureus; details: pH 5.5
Protocol: as §1, §3, §4, §5
as §3, with “Synergistic effects between” for “Activity of”, “(BAHP) and 1,2-Octanediol were determined. Activity of BAHP, 1,2-Octanediol and the combination of BAHP and 1,2-Octanediol” for “(BAHP)”

[1] = system: spores of A. brasiliensis; assay: as above; type: cell-based, Aspergillus brasiliensis
Protocol: as §1, §3, §4, §5
Activity of N-Methylsalicylamid (MSA) against the microorganism A. brasiliensis was evaluated in an anionic emulsion with Dracorin CE as emulsifier. The pH value of the emulsion was 5.5.
Activity of Furoic acid methylester (FAME) against the microorganism A. brasiliensis was evaluated in an anionic emulsion with Dracorin CE as emulsifier. The pH value of the emulsion was 5.5.
Activity of Salicylamide (SA) against the microorganism A. brasiliensis was evaluated in an anionic emulsion with Dracorin CE as emulsifier. The pH value of the emulsion was 5.5.
Activity of Salicylic acid hydroxyethyl ester (SAHE) against the microorganism A. brasiliensis was evaluated in an anionic emulsion with Dracorin CE as emulsifier. The pH value of the emulsion was 5.5.
Activity of Salicylic acid hydroxypropyl ester (SAHP) against the microorganism A. brasiliensis was evaluated in an anionic emulsion with Dracorin CE as emulsifier. The pH value of the emulsion was 5.5.
Activity of Benzoic acid-3-hydroxypropylester (BAHP) against spores of A. brasiliensis was evaluated in an anionic emulsion with Dracorin CE as emulsifier. The pH value of the emulsion was 7.
Activity of Anisic acid-3-hydroxypropylester (AAHP) against spores of A. brasiliensis was evaluated in an anionic emulsion with Dracorin CE as emulsifier. The pH value of the emulsion was 7. […]

[2] = day 2, 0.75% in anionic emulsion
[3] = day 7, 0.75% in anionic emulsion
[4] = day 14, 0.75% in anionic emulsion
[5] = day 28, 0.75% in anionic emulsion
[6] = day 2, 1.0% in anionic emulsion
[7] = day 7, 1.0% in anionic emulsion
[8] = day 14, 1.0% in anionic emulsion
[9] = day 28, 1.0% in anionic emulsion
[10] = day 7, 1.0% in anionic emulsion, pH 5.5
[11] = day 14, 1.0% in anionic emulsion, pH 5.5
[12] = day 14, 1.0% in anionic emulsion, pH 7
[13] = day 28, 1.0% in anionic emulsion, pH 5.5
[14] = day 28, 1.0% in anionic emulsion, pH 7

| SMILES | MIC (Candida albicans) [µg/mL] | MIC (Escherichia coli) [µg/mL] | MIC (Staphylococcus aureus) [µg/mL] | MIC (Pseudomonas aeruginosa) [µg/mL] | MIC (Aspergillus brasiliensis) [µg/mL] | Colony counts (cfu/g formulation) (P. aeruginosa; [6]) | Colony counts (cfu/g formulation) (P. aeruginosa; [7]) | Colony counts (cfu/g formulation) (P. aeruginosa; [8]) | Colony counts (cfu/g formulation) (P. aeruginosa; [9]) | Colony counts (cfu/g formulation) (C. albicans; [8]) | Colony counts (cfu/g formulation) (C. albicans; [9]) | Colony counts (cfu/g formulation) (E. coli; [6]) | Colony counts (cfu/g formulation) (E. coli; [7]) | Colony counts (cfu/g formulation) (E. coli; [8]) | Colony counts (cfu/g formulation) (E. coli; [9]) | Colony counts (cfu/g formulation) (S. aureus; [6]) | Colony counts (cfu/g formulation) (S. aureus; [7]) | Colony counts (cfu/g formulation) (S. aureus; [8]) | Colony counts (cfu/g formulation) [1, 11] [cfu/g formulation] | Colony counts (cfu/g formulation) [1, 13] [cfu/g formulation] | further results |
| --- | --- | --- | --- | --- | --- | --- | --- | --- | --- | --- | --- | --- | --- | --- | --- | --- | --- | --- | --- | --- | --- |
| O=C(OCCO)c1ccccc1O [SAHE, Salicylic acid hydroxyethyl ester] | 2500 (≈ 13.7 mM) | 2000 (≈ 11 mM) | > 1000 | > 1000 | 2500 (≈ 13.7 mM) |  |  |  |  |  |  |  |  |  |  |  |  |  |  |  |  |
| CCCCCCC(O)CO (stereo not shown) [1,2-Octanediol, reference compound] |  |  |  |  |  |  |  |  |  |  |  |  |  |  |  |  |  |  |  |  | Colony counts (cfu/g formulation) (P. aeruginosa; [2]): <10 cfu/g formulation; Colony counts (cfu/g formulation) (P. aeruginosa; [3]): <10 cfu/g formulation; Colony counts (cfu/g formulation) (P. aeruginosa; [4]): <10 cfu/g formulation; Colony counts (cfu/g formulation) (P. aeruginosa; [5]): <10 cfu/g formulation; Colony counts (cfu/g formulation) (C. albicans; [3]): <10 cfu/g formulation; Colony counts (cfu/g formulation) (C. albicans; [4]): <10 cfu/g formulation; Colony counts (cfu/g formulation) (C. albicans; [5]): <10 cfu/g formulation; Colony counts (cfu/g formulation) (E. coli; [2]): <10 cfu/g formulation; Colony counts (cfu/g formulation) (E. coli; [3]): <10 cfu/g formulation; Colony counts (cfu/g formulation) (E. coli; [4]): <10 cfu/g formulation; Colony counts (cfu/g formulation) (E. coli; [5]): <10 cfu/g formulation; Colony counts (cfu/g formulation) (S. aureus; [2]): <10 cfu/g formulation; Colony counts (cfu/g formulation) (S. aureus; [3]): <10 cfu/g formulation; Colony counts (cfu/g formulation) (S. aureus; [4]): <10 cfu/g formulation; Colony counts (cfu/g formulation) (S. aureus; [5]): <10 cfu/g formulation |
| O=C(OCCCO)c1ccco1 [FAHP, Furoic acid-3-hydroxypropylester] |  |  |  |  |  | <10 | <10 | <10 | <10 | <10 | <10 | <10 | <10 | <10 | <10 | <10 | <10 | <10 |  |  | Colony counts (cfu/g formulation) (S. aureus; [9]): <10 cfu/g formulation; MIC values (ppm) Candida aibicans (Candida albicans): >5000 ppm; MIC values (ppm) Escherichia coli (Escherichia coli): >5000 ppm; MIC values (ppm) Staphylococcus aureus (Staphylococcus aureus): >5000 ppm; MIC values (ppm) Pseudomonas aeruginosa (Pseudomonas aeruginosa): >5000 ppm; MIC values (ppm) Aspergillus brasiliensis (Aspergillus brasiliensis): 5000 ppm |
| O=C(OCCCO)c1ccccc1O [SAHP, Salicylic acid hydroxypropyl ester] | 2500 (≈ 12.7 mM) | 2500 (≈ 12.7 mM) | 1000 (≈ 5.1 mM) | > 1000 | 1000 (≈ 5.1 mM) |  |  |  |  |  |  |  |  |  |  |  |  |  |  |  |  |
| COc1ccc(C(=O)OCCCO)cc1 [AAHP, Anisic acid-3-hydroxypropylester] |  |  |  |  |  | <10 | <10 | <10 | <10 | <10 | <10 | <10 | <10 | <10 | <10 | <10 | <10 | <10 | <10 | <10 | Colony counts (cfu/g formulation) (C. albicans; [6]): <10 cfu/g formulation; Colony counts (cfu/g formulation) (C. albicans; [7]): <10 cfu/g formulation; Colony counts (cfu/g formulation) [1, 10]: <10 cfu/g formulation; Colony counts (cfu/g formulation) ([1]; day 7, 1.0% in anionic emulsion, pH 7): <10 cfu/g formulation; Colony counts (cfu/g formulation) [1, 12]: <10 cfu/g formulation; Colony counts (cfu/g formulation) [1, 14]: <10 cfu/g formulation; Colony counts (cfu/g formulation) (S. aureus; [9]): <10 cfu/g formulation; MIC values (ppm) Candida aibicans (Candida albicans): 2500 ppm; MIC values (ppm) Escherichia coli (Escherichia coli): 2500 ppm; MIC values (ppm) Staphylococcus aureus (Staphylococcus aureus): 5000 ppm; MIC values (ppm) Pseudomonas aeruginosa (Pseudomonas aeruginosa): >5000 ppm; MIC values (ppm) Aspergillus brasiliensis (Aspergillus brasiliensis): 1000 ppm |
| O=C(OCCCO)c1ccccc1 [BAHP, Benzoic acid-3-hydroxypropylester] | 2500 (≈ 13.9 mM) | 2000 (≈ 11.1 mM) | 5000 (≈ 27.7 mM) | > 5000 | 2500 (≈ 13.9 mM) | <10 | <10 | <10 | <10 | <10 | <10 | <10 | <10 | <10 | <10 | <10 | <10 | <10 | <10 | <10 | Colony counts (cfu/g formulation) (P. aeruginosa; [2]): <10 cfu/g formulation; Colony counts (cfu/g formulation) (P. aeruginosa; [3]): <10 cfu/g formulation; Colony counts (cfu/g formulation) (P. aeruginosa; [4]): <10 cfu/g formulation; Colony counts (cfu/g formulation) (P. aeruginosa; [5]): <10 cfu/g formulation; Colony counts (cfu/g formulation) (C. albicans; [3]): <10 cfu/g formulation; Colony counts (cfu/g formulation) (C. albicans; [7]): <10 cfu/g formulation; Colony counts (cfu/g formulation) (C. albicans; [4]): <10 cfu/g formulation; Colony counts (cfu/g formulation) (C. albicans; [5]): <10 cfu/g formulation; Colony counts (cfu/g formulation) [1, 12]: <10 cfu/g formulation; Colony counts (cfu/g formulation) [1, 14]: <10 cfu/g formulation; Colony counts (cfu/g formulation) (E. coli; [2]): <10 cfu/g formulation; Colony counts (cfu/g formulation) (E. coli; [3]): <10 cfu/g formulation; Colony counts (cfu/g formulation) (E. coli; [4]): <10 cfu/g formulation; Colony counts (cfu/g formulation) (E. coli; [5]): <10 cfu/g formulation; Colony counts (cfu/g formulation) (S. aureus; [3]): <10 cfu/g formulation; Colony counts (cfu/g formulation) (S. aureus; [4]): <10 cfu/g formulation; Colony counts (cfu/g formulation) (S. aureus; [5]): <10 cfu/g formulation; Colony counts (cfu/g formulation) (S. aureus; [9]): <10 cfu/g formulation |
| CNC(=O)c1ccccc1O [MSA, N-Methylsalicylamid] |  |  |  |  | 1000 (≈ 6.62 mM) |  |  |  |  |  |  |  |  |  |  |  |  |  | <10 | <10 | Colony counts (cfu/g formulation) [1, 10]: <10 cfu/g formulation |
| COC(=O)c1ccco1 [FAME, Furoic acid methylester] |  |  |  |  | > 1000 |  |  |  |  |  |  |  |  |  |  |  |  |  |  | <10 |  |
| NC(=O)c1ccccc1O [SA, Salicylamide] |  |  |  |  | 2500 (≈ 18.2 mM) |  |  |  |  |  |  |  |  |  |  |  |  |  | 2.0E+03 | <10 |  |

From patent US11116710B2, “Antimicrobial compositions” (SYMRISE AG, priority 2016, dated 2021)
